Experimental data taken from patent publication US8933233B2, “1,3,4-oxadiazole and 1,3,4-thiadiazole β-lactamase inhibitors” (priority 2012, dated 2015).
Where a name gives a salt, the structure may show the parent alone.

Assays:
[1] = tested on: bacterial strains that express the class D cephalosporinase OXA-15; test: Synergy MIC / standard BLI potentiation MIC assay, strains expressing OXA-15; format: cell-based, E. coli; settings: in presence of a β-lactam; comparator Avibactam (CCC)
Experimental: (§1) Unless otherwise indicated, the activity of the BLI compounds can be described by the MIC value obtained from a Synergy MIC assay or a BLI potentiation assay (e.g as described herein), both of which are run in the presence of a β-lactam.
(§2) The experimental protocol was performed according to Clinical and Laboratory Standards Institute (CLSI) guidelines with modifications as described below (CLSI guidelines can be derived from the CLSI document M07-A9 published in January 2012: “Methods for Dilution Antimicrobial Susceptibility Tests for Bacteria That Grow Aerobically; Approved Standard-Ninth Edition”).
(§3) To prepare for MIC testing, frozen glycerol stocks of clinical isolates (Klebsiella pneumoniae, Eschericia coli, Enterobacter spp, Citrobacter spp, or Pseudomonas aeruginosa) were used to streak for isolated colonies on rich, non-selective, tryptic soy agar containing 5% sheep's blood (TSAB). Frozen glycerol stocks of laboratory engineered, isogenic E. coli strains, which contain cloned β-lactamase expressing plasmids were used to streak for isolated colonies on rich, selective LB agar supplemented with 25 μg/mL tetracycline to maintain the plasmid. All strains were incubated at 37° C. for 18-24 hrs.
(§4) On the day of testing, primary cultures were started by scraping off 5-10 colonies from the TSAB plates containing clinical strains or the tetracycline supplemented LB plates containing engineered strains. The clinical strain material was suspended in ˜5 mL of cation adjusted Mueller Hinton Broth (CAMHB) in 14 mL culture tubes. The engineered strain material was suspended in CAMHB (supplemented with 25 μg/mL tetracycline) in 14 mL culture tubes. All strains were incubated at 37° C. with aeration (200 rpm) for ˜2 hrs until the optical density at 600 nm (OD600) was ≧0.1.
(§5) The two compound components of the assay were each diluted in CAMHB and added to the 96-well broth microdilution assay plates. 50 μL of the β-lactam was added to each well of the assay plate in 2-fold dilutions with final concentrations ranging from 128 to 0.13 μg/mL. 25 μL of the BLI compound was added to all wells in the broth microdilution plates at a final concentration of 4 μg/mL. Inoculum cultures were prepared by standardizing the primary cultures to OD600=0.1 and then adding 20 μL of the adjusted primary culture per 1 mL CAMHB for clinical strains or CAMHB (supplemented with tetracycline at 100 μg/mL) for engineered strains, so that the final inoculum density was ˜10^5 colony forming units per milliliter. Diluted inoculum cultures were used to inoculate 25 μL per well in 96-well broth microdilution assay plates. The final volume of each well was 100 μL and contained a β-lactam at different concentrations, a BLIcompound at 4 μg/mL concentration, the bacterial culture at an OD600 of approximately 0.001 and when necessary tetracycline at 25 μg/mL.
(§6) Plates were incubated for 18-20 hours at 37° C. with aeration (200 rpm). Following incubation, growth was confirmed visually placing plates over a viewing apparatus (stand with a mirror underneath) and then OD600 was measured using a SpectraMax 340PC384 plate reader (Molecular Devices, Sunnyvale, Calif.). Growth was defined as turbidity that could be detected with the naked eye or achieving minimum OD600 of 0.1. MIC values were defined as the lowest concentration producing no visible turbidity.
(§7) The synergy MIC (sMIC) assay determines the concentration of the BLI required to potentiate the activity of a fixed concentration of a β-lactam antibiotic against β-lactamase producing bacterial strains. The experimental protocol was performed according to Clinical and Laboratory Standards Institute (CLSI) guidelines with modifications as described below (CLSI guidelines can be derived from the CLSI document M07-A9 published in January 2012: “Methods for Dilution Antimicrobial Susceptibility Tests for Bacteria That Grow Aerobically; Approved Standard-Ninth Edition”). […]

[2] = tested on: bacterial strains that express KPC β-lactamases; test: Synergy MIC / standard BLI potentiation MIC assay, strains expressing KPC β-lactamases; format: cell-based, isogenic E. coli and clinical isolates; settings: more active for at least one KPC strain and/or better spectrum; comparator Avibactam
Experimental: as §1, §2, §3, §4, §5, §6, §7

In the case of CC(C)(N)Cc1nnc([C@@H]2CC[C@@H]3CN2C(=O)N3OS(=O)(=O)O)o1 [Compound 737, (2S,5R)-2-(5-(2-amino-2-methylpropyl)-1,3,4-oxadiazol-2-yl)-7-oxo-1,6-diazabicyclo[3.2.1]octan-6-yl hydrogen sulfate], the “activity against bacterial strains that express OXA-15, compared with Avibactam” value [1] is reported as “more active than Avibactam” and the “activity and/or spectrum of activity against bacterial strains that express KPC β-lactamases, compared with Avibactam” value [2] is reported as “more active than Avibactam”.
In the case of N=C(N)NCC1(c2nnc([C@@H]3CC[C@@H]4CN3C(=O)N4OS(=O)(=O)O)o2)CC1 [Compound 723, (2S,5R)-2-(5-(1-(guanidinomethyl)cyclopropyl)-1,3,4-oxadiazol-2-yl)-7-oxo-1,6-diazabicyclo[3.2.1]octan-6-yl hydrogen sulfate], the “activity against bacterial strains that express OXA-15, compared with Avibactam” value [1] is reported as “more active than Avibactam” and the “activity and/or spectrum of activity against bacterial strains that express KPC β-lactamases, compared with Avibactam” value [2] is reported as “more active than Avibactam”.
O=C1N2C[C@@H](CC[C@H]2c2nnco2)N1OS(=O)(=O)O [Compound 701, (2S,5R)-2-(1,3,4-oxadiazol-2-yl)-7-oxo-1,6-diazabicyclo[3.2.1]octan-6-yl hydrogen sulfate] was tested, and the “activity against bacterial strains that express OXA-15, compared with Avibactam” value [1] was “more active than Avibactam” and the “activity and/or spectrum of activity against bacterial strains that express KPC β-lactamases, compared with Avibactam” value [2] was “more active than Avibactam”.
With N[C@H]1C[C@H](Cc2nnc([C@@H]3CC[C@@H]4CN3C(=O)N4OS(=O)(=O)O)o2)C1 [Compound 751, (2S,5R)-2-(5-(((1r,3S)-3-aminocyclobutyl)methyl)-1,3,4-oxadiazol-2-yl)-7-oxo-1,6-diazabicyclo[3.2.1]octan-6-yl hydrogen sulfate] the “activity against bacterial strains that express OXA-15, compared with Avibactam” value [1] was “more active than Avibactam” and the “activity and/or spectrum of activity against bacterial strains that express KPC β-lactamases, compared with Avibactam” value [2] was “more active than Avibactam”.
N=C(N)N[C@H]1C[C@@H](c2nnc([C@@H]3CC[C@@H]4CN3C(=O)N4OS(=O)(=O)O)o2)C1 [Compound 749, 2S,5R)-2-(5-((1s,3R)-3-guanidinocyclobutyl)-1,3,4-oxadiazol-2-yl)-7-oxo-1,6-diazabicyclo[3.2.1]octan-6-yl hydrogen sulfate] was tested, and the “activity against bacterial strains that express OXA-15, compared with Avibactam” value [1] was “more active than Avibactam” and the “activity and/or spectrum of activity against bacterial strains that express KPC β-lactamases, compared with Avibactam” value [2] was “more active than Avibactam”.
For O=C1N2C[C@@H](CC[C@H]2c2nnc(CN[C@H]3CCNC3)o2)N1OS(=O)(=O)O [Compound 765, (2S,5R)-7-oxo-2-(5-(((S)-pyrrolidin-3-ylamino)methyl)-1,3,4-oxadiazol-2-yl)-1,6-diazabicyclo[3.2.1]octan-6-yl hydrogen sulfate], the “activity against bacterial strains that express OXA-15, compared with Avibactam” value [1] was “more active than Avibactam” and the “activity and/or spectrum of activity against bacterial strains that express KPC β-lactamases, compared with Avibactam” value [2] was “more active than Avibactam”.
O=C1N2C[C@@H](CC[C@H]2c2nnc([C@H]3[C@@H]4CNC[C@@H]43)o2)N1OS(=O)(=O)O [Compound 740, (2S,5R)-2-(5-(3-azabicyclo[3.1.0]hexan-6-yl)-1,3,4-oxadiazol-2-yl)-7-oxo-1,6-diazabicyclo[3.2.1]octan-6-yl hydrogen sulfate] was tested, and the “activity against bacterial strains that express OXA-15, compared with Avibactam” value [1] was “more active than Avibactam” and the “activity and/or spectrum of activity against bacterial strains that express KPC β-lactamases, compared with Avibactam” value [2] was “more active than Avibactam”.
For N=C(N)NCC(O)Cc1nnc([C@@H]2CC[C@@H]3CN2C(=O)N3OS(=O)(=O)O)o1 (stereo partly drawn) [Compound 730, (2S,5R)-2-(5-(3-guanidino-2-hydroxypropyl)-1,3,4-oxadiazol-2-yl)-7-oxo-1,6-diazabicyclo[3.2.1]octan-6-yl hydrogen sulfate], the “activity against bacterial strains that express OXA-15, compared with Avibactam” value [1] was “more active than Avibactam” and the “activity and/or spectrum of activity against bacterial strains that express KPC β-lactamases, compared with Avibactam” value [2] was “more active than Avibactam”.
In the case of N=C(N)N1CC(NCc2nnc([C@@H]3CC[C@@H]4CN3C(=O)N4OS(=O)(=O)O)o2)C1 [Compound 746, (2S,5R)-2-(5-(((1-carbamimidoylazetidin-3-yl)amino)methyl)-1,3,4-oxadiazol-2-yl)-7-oxo-1,6-diazabicyclo[3.2.1]octan-6-yl hydrogen sulfate], the “activity against bacterial strains that express OXA-15, compared with Avibactam” value [1] is reported as “more active than Avibactam” and the “activity and/or spectrum of activity against bacterial strains that express KPC β-lactamases, compared with Avibactam” value [2] is reported as “more active than Avibactam”.
With N[C@H]1C[C@@H](c2nnc([C@@H]3CC[C@@H]4CN3C(=O)N4OS(=O)(=O)O)s2)C1 [Compound 795, (2S,5R)-2-(5-((1s,3R)-3-aminocyclobutyl)-1,3,4-thiadiazol-2-yl)-7-oxo-1,6-diazabicyclo[3.2.1]octan-6-yl hydrogen sulfate] the “activity against bacterial strains that express OXA-15, compared with Avibactam” value [1] was “more active than Avibactam” and the “activity and/or spectrum of activity against bacterial strains that express KPC β-lactamases, compared with Avibactam” value [2] was “more active than Avibactam”.
For N[C@H]1CC[C@@H](c2nnc([C@@H]3CC[C@@H]4CN3C(=O)N4OS(=O)(=O)O)o2)C1 [Compound 768, (2S,5R)-2-(5-((1R,3S)-3-aminocyclopentyl)-1,3,4-oxadiazol-2-yl)-7-oxo-1,6-diazabicyclo[3.2.1]octan-6-yl hydrogen sulfate], the “activity against bacterial strains that express OXA-15, compared with Avibactam” value [1] was “more active than Avibactam” and the “activity and/or spectrum of activity against bacterial strains that express KPC β-lactamases, compared with Avibactam” value [2] was “more active than Avibactam”.
N[C@H]1CN[C@@H](c2nnc([C@@H]3CC[C@@H]4CN3C(=O)N4OS(=O)(=O)O)o2)C1 [Compound 761, (2S,5R)-2-(5-((2R,4R)-4-aminopyrrolidin-2-yl)-1,3,4-oxadiazol-2-yl)-7-oxo-1,6-diazabicyclo[3.2.1]octan-6-yl hydrogen sulfate] was tested, and the “activity against bacterial strains that express OXA-15, compared with Avibactam” value [1] was “more active than Avibactam” and the “activity and/or spectrum of activity against bacterial strains that express KPC β-lactamases, compared with Avibactam” value [2] was “more active than Avibactam”.
For N=C(N)NCCc1nnc([C@@H]2CC[C@@H]3CN2C(=O)N3OS(=O)(=O)O)o1 [Compound 705, (2S,5R)-2-(5-(2-guanidinoethyl)-1,3,4-oxadiazol-2-yl)-7-oxo-1,6-diazabicyclo[3.2.1]octan-6-yl hydrogen sulfate], the “activity against bacterial strains that express OXA-15, compared with Avibactam” value [1] was “more active than Avibactam” and the “activity and/or spectrum of activity against bacterial strains that express KPC β-lactamases, compared with Avibactam” value [2] was “more active than Avibactam”.
In the case of N=C(N)NC1CC(Cc2nnc([C@@H]3CC[C@@H]4CN3C(=O)N4OS(=O)(=O)O)o2)C1 (stereo partly drawn) [Compound 752, (2S,5R)-2-(5-((3-guanidinocyclobutyl)methyl)-1,3,4-oxadiazol-2-yl)-7-oxo-1,6-diazabicyclo[3.2.1]octan-6-yl hydrogen sulfate], the “activity against bacterial strains that express OXA-15, compared with Avibactam” value [1] is reported as “more active than Avibactam” and the “activity and/or spectrum of activity against bacterial strains that express KPC β-lactamases, compared with Avibactam” value [2] is reported as “more active than Avibactam”.
NCCCCc1nnc([C@@H]2CC[C@@H]3CN2C(=O)N3OS(=O)(=O)O)o1 [Compound 735, (2S,5R)-2-(5-(4-aminobutyl)-1,3,4-oxadiazol-2-yl)-7-oxo-1,6-diazabicyclo[3.2.1]octan-6-yl hydrogen sulfate] was tested, and the “activity against bacterial strains that express OXA-15, compared with Avibactam” value [1] was “more active than Avibactam” and the “activity and/or spectrum of activity against bacterial strains that express KPC β-lactamases, compared with Avibactam” value [2] was “more active than Avibactam”.
